Data reported in patent US12643867B2, “Compositions and uses thereof” (University of Virginia Patent Foundation, priority 2017, dated 2026).

Tests used:
Test in all cases: SILAC LC-MS ATP acyl phosphate probe competition, native kinases in HEK293T
Format in all cases: binding
[1] = molecular target: T1, CHK2 (Serine/threonine-protein kinase Chk2) (Homo sapiens, UniProt O96017); details: for SILAC ratio, CHK2 probe-modified peptide: site Lys1, ATP 1 mM, Ketanserin, Ritanserin 100 μM, RF001 1 mM
T1 construct: measured against >50 native kinases quantified in HEK293T soluble proteomes; endogenous in cells; host or cells: HEK293T soluble proteome
T1 sequence (O96017 whole entry): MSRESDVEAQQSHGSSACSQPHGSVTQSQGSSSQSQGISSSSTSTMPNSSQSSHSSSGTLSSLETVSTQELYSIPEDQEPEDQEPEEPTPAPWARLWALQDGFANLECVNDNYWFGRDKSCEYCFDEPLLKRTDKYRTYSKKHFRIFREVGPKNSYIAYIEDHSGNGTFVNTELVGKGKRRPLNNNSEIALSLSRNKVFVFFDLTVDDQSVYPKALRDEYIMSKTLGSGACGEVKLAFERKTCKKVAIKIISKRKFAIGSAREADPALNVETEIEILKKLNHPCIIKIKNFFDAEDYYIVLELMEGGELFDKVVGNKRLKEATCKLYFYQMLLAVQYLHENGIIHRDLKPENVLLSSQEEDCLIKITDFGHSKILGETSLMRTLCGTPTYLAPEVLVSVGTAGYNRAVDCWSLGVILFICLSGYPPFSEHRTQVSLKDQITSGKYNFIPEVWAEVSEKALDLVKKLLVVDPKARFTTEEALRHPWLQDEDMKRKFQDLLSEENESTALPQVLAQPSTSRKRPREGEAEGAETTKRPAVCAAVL
How it was run: (§1)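 HEK293T SILAC proteomes, 2 mg/ml; heavy + compound (from 50× DMSO stock), light + DMSO, 30 min, 25° C. Mix 1:1, MeOH/CHCl3 extraction, DTT/iodoacetamide, trypsin/Lys-C 3 h 37° C. Avidin enrichment of desthiobiotin-modified peptides; Orbitrap Q Exactive Plus LC-MS, top-10 DDA.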

[2] = molecular target: T2, STK38 (Serine/threonine-protein kinase 38) (Homo sapiens, UniProt Q15208); details: site Lys1; ATP 1 mM; Ketanserin, Ritanserin 100 μM; RF001 1 mM
T2 construct: Native kinases; endogenous in cells; host or cells: HEK293T soluble proteome
T2 sequence (Q15208 whole entry): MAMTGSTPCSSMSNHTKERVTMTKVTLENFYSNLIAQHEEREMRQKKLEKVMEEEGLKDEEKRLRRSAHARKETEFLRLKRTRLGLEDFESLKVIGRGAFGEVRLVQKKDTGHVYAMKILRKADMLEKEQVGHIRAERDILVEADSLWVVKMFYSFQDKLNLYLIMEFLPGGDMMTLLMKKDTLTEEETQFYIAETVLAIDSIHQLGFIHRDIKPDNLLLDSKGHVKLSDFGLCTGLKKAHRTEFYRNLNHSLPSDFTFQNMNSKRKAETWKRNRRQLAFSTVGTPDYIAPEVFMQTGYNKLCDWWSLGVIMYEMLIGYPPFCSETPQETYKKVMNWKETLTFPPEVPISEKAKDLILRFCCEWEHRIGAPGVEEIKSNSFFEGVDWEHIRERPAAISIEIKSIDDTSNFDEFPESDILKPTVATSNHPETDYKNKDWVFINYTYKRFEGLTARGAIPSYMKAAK
How it was run: as §1

[3] = molecular target: T3, KCC2D (Calcium/calmodulin-dependent protein kinase type II delta chain) (Homo sapiens, UniProt Q13557); details: site Lys1; ATP 1 mM; Ketanserin, Ritanserin 100 μM; RF001 1 mM
T3 construct: measured against >50 native kinases quantified in HEK293T soluble proteomes; endogenous in cells; host or cells: HEK293T soluble proteome
T3 sequence (Q13557 whole entry): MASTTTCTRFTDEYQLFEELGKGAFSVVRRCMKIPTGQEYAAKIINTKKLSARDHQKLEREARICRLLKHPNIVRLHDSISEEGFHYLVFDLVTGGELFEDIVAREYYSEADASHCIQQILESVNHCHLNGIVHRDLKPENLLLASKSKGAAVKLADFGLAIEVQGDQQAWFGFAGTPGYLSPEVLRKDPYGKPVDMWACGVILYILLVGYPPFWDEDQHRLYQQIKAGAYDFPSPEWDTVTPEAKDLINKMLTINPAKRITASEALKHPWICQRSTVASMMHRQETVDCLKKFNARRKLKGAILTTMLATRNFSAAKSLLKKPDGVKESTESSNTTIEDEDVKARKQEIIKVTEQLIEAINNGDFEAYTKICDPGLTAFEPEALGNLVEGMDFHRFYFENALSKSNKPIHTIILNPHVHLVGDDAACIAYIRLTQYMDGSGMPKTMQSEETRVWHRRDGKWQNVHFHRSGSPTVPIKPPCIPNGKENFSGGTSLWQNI
How it was run: as §1

[4] = molecular target: T4, KS6A1 (Ribosomal protein S6 kinase alpha 1) (Homo sapiens, UniProt Q15418); details: site ACT; ATP 1 mM; Ketanserin, Ritanserin 100 μM; RF001 1 mM
T4 construct: measured against >50 native kinases quantified in HEK293T soluble proteomes; endogenous in cells; host or cells: HEK293T soluble proteome
T4 sequence (Q15418 whole entry): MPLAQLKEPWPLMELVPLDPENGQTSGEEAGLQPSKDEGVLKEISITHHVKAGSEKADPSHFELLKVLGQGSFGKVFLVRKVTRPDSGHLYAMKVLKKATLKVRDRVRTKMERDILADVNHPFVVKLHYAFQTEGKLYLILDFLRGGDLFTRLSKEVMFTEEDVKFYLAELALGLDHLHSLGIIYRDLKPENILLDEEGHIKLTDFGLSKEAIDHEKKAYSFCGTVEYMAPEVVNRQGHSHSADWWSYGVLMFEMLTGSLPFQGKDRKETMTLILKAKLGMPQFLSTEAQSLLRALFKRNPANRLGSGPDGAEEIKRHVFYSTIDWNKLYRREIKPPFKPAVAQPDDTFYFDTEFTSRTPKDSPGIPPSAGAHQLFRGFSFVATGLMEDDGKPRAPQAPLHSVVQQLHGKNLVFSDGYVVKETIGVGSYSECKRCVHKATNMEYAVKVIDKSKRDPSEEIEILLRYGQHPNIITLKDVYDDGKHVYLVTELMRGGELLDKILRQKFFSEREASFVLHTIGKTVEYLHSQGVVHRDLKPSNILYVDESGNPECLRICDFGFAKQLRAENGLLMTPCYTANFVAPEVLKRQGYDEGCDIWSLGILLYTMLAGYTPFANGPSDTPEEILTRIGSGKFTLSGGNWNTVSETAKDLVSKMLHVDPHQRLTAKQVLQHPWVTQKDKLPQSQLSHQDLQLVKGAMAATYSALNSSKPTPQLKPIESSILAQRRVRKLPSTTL
How it was run: as §1

[5] = molecular target: T5, STK10 (Serine/threonine-protein kinase 10) (Homo sapiens, UniProt O94804); details: site Lys2; ATP 1 mM; Ketanserin, Ritanserin 100 μM; RF001 1 mM
T5 construct: Native kinases; endogenous in cells; host or cells: HEK293T soluble proteome
T5 sequence (O94804 whole entry): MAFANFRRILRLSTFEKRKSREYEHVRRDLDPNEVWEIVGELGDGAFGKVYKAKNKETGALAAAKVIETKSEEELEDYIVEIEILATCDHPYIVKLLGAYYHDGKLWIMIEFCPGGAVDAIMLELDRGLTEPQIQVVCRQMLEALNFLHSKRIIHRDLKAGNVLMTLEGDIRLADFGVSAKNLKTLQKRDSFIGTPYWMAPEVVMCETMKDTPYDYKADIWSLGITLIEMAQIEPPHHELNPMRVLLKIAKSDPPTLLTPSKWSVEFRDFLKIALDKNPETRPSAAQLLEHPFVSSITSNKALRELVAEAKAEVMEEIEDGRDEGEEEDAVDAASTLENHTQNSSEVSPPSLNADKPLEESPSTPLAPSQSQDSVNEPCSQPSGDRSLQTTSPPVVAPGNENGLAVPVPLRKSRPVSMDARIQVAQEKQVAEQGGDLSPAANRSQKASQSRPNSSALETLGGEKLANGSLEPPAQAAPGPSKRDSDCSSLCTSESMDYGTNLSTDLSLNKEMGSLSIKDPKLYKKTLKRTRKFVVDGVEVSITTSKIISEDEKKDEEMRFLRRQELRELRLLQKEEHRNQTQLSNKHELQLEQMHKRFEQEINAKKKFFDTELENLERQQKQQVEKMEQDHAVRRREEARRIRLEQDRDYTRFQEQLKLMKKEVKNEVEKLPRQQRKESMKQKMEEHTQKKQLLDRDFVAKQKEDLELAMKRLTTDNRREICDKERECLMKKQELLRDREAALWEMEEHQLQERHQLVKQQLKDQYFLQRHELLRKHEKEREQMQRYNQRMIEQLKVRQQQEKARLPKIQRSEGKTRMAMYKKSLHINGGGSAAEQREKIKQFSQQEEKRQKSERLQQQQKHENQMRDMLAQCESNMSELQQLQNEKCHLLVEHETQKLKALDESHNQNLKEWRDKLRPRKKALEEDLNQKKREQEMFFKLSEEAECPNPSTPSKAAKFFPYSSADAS
How it was run: as §1

[6] = molecular target: T6, CSK (Tyrosine-protein kinase CSK) (Homo sapiens, UniProt P41240); details: site ACT; ATP 1 mM; Ketanserin, Ritanserin 100 μM; RF001 1 mM
T6 construct: measured against >50 native kinases quantified in HEK293T soluble proteomes; endogenous in cells; host or cells: HEK293T soluble proteome
T6 sequence (P41240 whole entry): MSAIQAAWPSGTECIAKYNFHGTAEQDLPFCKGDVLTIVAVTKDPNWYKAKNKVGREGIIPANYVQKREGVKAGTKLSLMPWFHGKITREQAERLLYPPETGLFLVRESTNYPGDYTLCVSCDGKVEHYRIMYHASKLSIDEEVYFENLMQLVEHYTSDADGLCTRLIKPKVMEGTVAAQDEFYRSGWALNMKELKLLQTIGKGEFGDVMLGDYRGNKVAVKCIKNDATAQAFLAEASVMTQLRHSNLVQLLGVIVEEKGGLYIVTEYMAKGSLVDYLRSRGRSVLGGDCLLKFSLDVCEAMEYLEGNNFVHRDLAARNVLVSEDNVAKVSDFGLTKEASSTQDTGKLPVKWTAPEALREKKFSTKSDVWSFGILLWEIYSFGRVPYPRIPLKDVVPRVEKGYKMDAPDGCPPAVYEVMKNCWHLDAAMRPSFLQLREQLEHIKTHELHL
How it was run: as §1

[7] = molecular target: T7, MP2K3 (Dual specificity mitogen-activated protein kinase kinase 3) (Homo sapiens, UniProt P46734); details: site Lys2; ATP 1 mM; Ketanserin, Ritanserin 100 μM; RF001 1 mM
T7 construct: Native kinases; endogenous in cells; host or cells: HEK293T soluble proteome
T7 sequence (P46734 1-347): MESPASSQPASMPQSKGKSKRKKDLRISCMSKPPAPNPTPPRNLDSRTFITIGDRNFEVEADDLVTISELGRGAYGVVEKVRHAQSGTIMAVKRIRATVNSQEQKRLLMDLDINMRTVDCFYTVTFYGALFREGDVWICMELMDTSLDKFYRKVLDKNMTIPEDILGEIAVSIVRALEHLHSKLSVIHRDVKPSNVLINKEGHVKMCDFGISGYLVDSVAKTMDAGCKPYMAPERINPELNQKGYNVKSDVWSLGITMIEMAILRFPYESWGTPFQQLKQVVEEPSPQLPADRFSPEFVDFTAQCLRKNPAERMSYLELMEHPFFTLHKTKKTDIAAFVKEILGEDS
How it was run: as §1

SMILES: Cc1nc2sccn2c(=O)c1CCN1CCC(=C(c2ccc(F)cc2)c2ccc(F)cc2)CC1 [Ritanserin]
- SILAC ratio, CHK2 probe-modified peptide [1]: 2.2
- SILAC ratio, STK38 probe-modified peptide [2]: 2.0
- SILAC ratio, KCC2D probe-modified peptide [3]: 2.3
- SILAC ratio, KS6A1 probe-modified peptide [4]: 2.1
- SILAC ratio, STK10 probe-modified peptide [5]: 1.7
- SILAC ratio, CSK probe-modified peptide [6]: 1.8
- SILAC ratio, MP2K3 probe-modified peptide [7]: 1.7

SMILES: Fc1ccc(C(=C2CCNCC2)c2ccc(F)cc2)cc1 [RF001, 4-(Bis(4-fluorophenyl)methylene) piperidine]
- CHK2 ATP acyl-phosphate labeling response (words, FIG. 20) ([1]; H82 and HEK293T, 1 mM RF001): activator of CHK2
- SILAC ratio, CHK2 probe-modified peptide [1]: 0.2
- SILAC ratio, STK38 probe-modified peptide [2]: 1.4
- SILAC ratio, KCC2D probe-modified peptide [3]: 1.2
- SILAC ratio, KS6A1 probe-modified peptide [4]: 1.3
- SILAC ratio, STK10 probe-modified peptide [5]: 1.1
- SILAC ratio, CSK probe-modified peptide [6]: 1.1
- SILAC ratio, MP2K3 probe-modified peptide [7]: 1.2

SMILES: O=C(c1ccc(F)cc1)C1CCN(CCn2c(=O)[nH]c3ccccc3c2=O)CC1 [Ketanserin]
- SILAC ratio, CHK2 probe-modified peptide [1]: 1.6
- SILAC ratio, STK38 probe-modified peptide [2]: 1.3
- SILAC ratio, KCC2D probe-modified peptide [3]: 1.5
- SILAC ratio, KS6A1 probe-modified peptide [4]: 1.4
- SILAC ratio, STK10 probe-modified peptide [5]: 1.3
- SILAC ratio, CSK probe-modified peptide [6]: 1.2
- SILAC ratio, MP2K3 probe-modified peptide [7]: 1.4
